# From PubChem BioAssay (NCI)
#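 GI50 is the concentration that inhibits growth by half. Definition used: TGI = concentration required for complete inhibition of growth.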
# Legend:
# Test in all cases: DTP human tumour cell line panel, 384-well format
# 786-0 renal = tested on: 786-0 renal
# A498 renal = tested on: A498 renal
# A549 NSCLC = tested on: A549 NSCLC
# ACHN renal = tested on: ACHN renal
# BT-549 breast = tested on: BT-549 breast
# CAKI-1 renal = tested on: CAKI-1 renal
# CCRF-CEM leukemia = tested on: CCRF-CEM leukemia
# COLO 205 colon = tested on: COLO 205 colon
# DU-145 prostate = tested on: DU-145 prostate
# EKVX NSCLC = tested on: EKVX NSCLC
# HCT-116 colon = tested on: HCT-116 colon
# HCT-15 colon = tested on: HCT-15 colon
# HL-60(TB) leukemia = tested on: HL-60(TB) leukemia
# HOP-62 NSCLC = tested on: HOP-62 NSCLC
# HOP-92 NSCLC = tested on: HOP-92 NSCLC
# HS 578T breast = tested on: HS 578T breast
# IGROV1 ovarian = tested on: IGROV1 ovarian
# K-562 leukemia = tested on: K-562 leukemia
# KM12 colon = tested on: KM12 colon
# M14 melanoma = tested on: M14 melanoma
# MALME-3M melanoma = tested on: MALME-3M melanoma
# MDA-MB-435 melanoma = tested on: MDA-MB-435 melanoma
# MDA-MB-468 breast = tested on: MDA-MB-468 breast
# MOLT-4 leukemia = tested on: MOLT-4 leukemia
smiles,measurement,setting,value
Cn1ncc2cc(-c3cnc(N)c(Cl)c3N3CCC4(CCNC4=O)CC3)ccc21,GI50,786-0 renal,10.7 µM
same,TGI,786-0 renal,25.4 µM
same,GI50,A498 renal,10.2 µM
same,TGI,A498 renal,> 100 µM
same,GI50,A549 NSCLC,47.6 µM
same,TGI,A549 NSCLC,> 100 µM
same,GI50,ACHN renal,14.1 µM
same,TGI,ACHN renal,> 100 µM
same,GI50,BT-549 breast,38.1 µM
same,TGI,BT-549 breast,> 100 µM
same,GI50,CAKI-1 renal,20.6 µM
same,TGI,CAKI-1 renal,> 95.7 µM
same,GI50,CCRF-CEM leukemia,14.3 µM
same,TGI,CCRF-CEM leukemia,32.9 µM
same,GI50,COLO 205 colon,48.3 µM
same,TGI,COLO 205 colon,> 100 µM
same,GI50,DU-145 prostate,33.9 µM
same,TGI,DU-145 prostate,> 100 µM
same,GI50,EKVX NSCLC,28.2 µM
same,TGI,EKVX NSCLC,> 91.8 µM
same,GI50,HCT-116 colon,29.4 µM
same,TGI,HCT-116 colon,> 100 µM
same,GI50,HCT-15 colon,22.5 µM
same,TGI,HCT-15 colon,83.4 µM
same,GI50,HL-60(TB) leukemia,13.4 µM
same,TGI,HL-60(TB) leukemia,26.2 µM
same,GI50,HOP-62 NSCLC,29.2 µM
same,TGI,HOP-62 NSCLC,> 90.6 µM
same,GI50,HOP-92 NSCLC,41.4 µM
same,TGI,HOP-92 NSCLC,> 87.8 µM
same,GI50,HS 578T breast,24.1 µM
same,TGI,HS 578T breast,46.9 µM
same,GI50,IGROV1 ovarian,19.6 µM
same,TGI,IGROV1 ovarian,> 87 µM
same,GI50,K-562 leukemia,36.1 µM
same,TGI,K-562 leukemia,> 100 µM
same,GI50,KM12 colon,32.4 µM
same,TGI,KM12 colon,> 100 µM
same,GI50,M14 melanoma,> 78.2 µM
same,TGI,M14 melanoma,> 100 µM
same,GI50,MALME-3M melanoma,40.9 µM
same,TGI,MALME-3M melanoma,> 85 µM
same,GI50,MDA-MB-435 melanoma,> 87.5 µM
same,TGI,MDA-MB-435 melanoma,> 100 µM
same,GI50,MDA-MB-468 breast,9.27 µM
same,TGI,MDA-MB-468 breast,25.5 µM
same,GI50,MOLT-4 leukemia,10.8 µM
